Measurements published in patent publication US20240279221A1, “HETEROCYCLIC COMPOUNDS AND METHODS OF USE” (Schrödinger, Inc., priority 2021, published 2024).

How the values were obtained:
human SOS1 = human SOS1 (Homo sapiens (Human), UniProt Q07889); test: Surface Plasmon Resonance (SPR) SOS1 Binding Assay; settings: biotinylated SOS1 (res. 564-1049), 25° C., kinetic or steady state fit, read-out: KD for hSOS1
In short: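 Biotinylated human SOS1 (res. 564-1049, N-terminal Avi tag) captured on streptavidin chip to ~3,000 RU; 25° C., Tris buffer pH 8.0 with 1 mM MgCl2, 5% DMSO running buffer. Compound series (top 100, 50 or 0.5 μM) injected 60 s, dissociation 600 s; double-referenced KD from 1:1 kinetic or steady-state fit.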

[1] = molecular target: SOS1:KRAS (G12C) interaction (Homo sapiens (Human), UniProt Q07889); test: SOS1-KRas(G12C) FRET Assay; assay type: binding; settings: 0.5 nM His10-SOS1 (res. 564-1049), 2.5 nM GST-KRAS (res. 1-169, G12C); read-out: SOS-KRas(G12C) FRET IC50
SOS1:KRAS (G12C) interaction, sequence (Q07889 564-1049, stated change not applied): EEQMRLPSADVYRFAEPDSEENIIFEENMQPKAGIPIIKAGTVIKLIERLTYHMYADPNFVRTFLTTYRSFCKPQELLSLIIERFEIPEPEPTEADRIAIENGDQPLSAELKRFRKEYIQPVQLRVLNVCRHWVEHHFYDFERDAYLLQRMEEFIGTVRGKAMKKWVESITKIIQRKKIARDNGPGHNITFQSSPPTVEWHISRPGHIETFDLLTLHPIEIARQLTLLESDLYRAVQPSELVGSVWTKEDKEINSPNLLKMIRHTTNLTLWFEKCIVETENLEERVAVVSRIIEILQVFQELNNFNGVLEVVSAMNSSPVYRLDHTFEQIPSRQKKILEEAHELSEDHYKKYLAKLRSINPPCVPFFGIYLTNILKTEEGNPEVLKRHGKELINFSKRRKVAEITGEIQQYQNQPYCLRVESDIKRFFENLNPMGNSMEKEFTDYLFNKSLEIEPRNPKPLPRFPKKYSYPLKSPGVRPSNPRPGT
In short: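 Compounds were pre-incubated 15 min at 25° C with SOS1 (His10, res. 564-1049; 0.5 nM final) and anti-6His-XL665, then GST-KRAS G12C (res. 1-169; 2.5 nM final) with anti-GST-Eu(K) was added for 2 h at RT. The buffer was PBS, 0.1% BSA, 5 mM MgCl2, 100 mM KF, 5 mM DTT with 0.5% DMSO. The 665/615 nm signal was normalised to DMSO and no-SOS1 controls, and IC50 and Hill coefficient were fitted by non-linear regression.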

human SOS1, sequence (Q07889 564-1049): as the sequence (Q07889 564-1049, stated change not applied) above

Row | SMILES | Kd (human SOS1) [nM] | IC50 [1] [nM]
1 | COc1c(=O)n(C2(C(F)F)CC2)cc2c(N[C@H](C)c3cccc(C(F)F)c3F)nn(C)c(=O)c12 [Example 73, (R)-4-((1-(3-(difluoromethyl)-2-fluorophenyl)ethyl)amino)-6-(1-(difluoromethyl)cyclopropyl)-8-methoxy-2-methyl-2,6-dihydropyrido[3,4-d]pyridazine-1,7-dione] | 27 | 60.8
2 | Cc1c(=O)n(C2(C(F)F)CC2)cc2c(N[C@H](C)c3cccc(C(F)F)c3F)nn(C)c(=O)c12 [Example 74, (R)-4-((1-(3-(difluoromethyl)-2-fluorophenyl)ethyl)amino)-6-(1-(difluoromethyl)cyclopropyl)-2,8-dimethyl-2,6-dihydropyrido[3,4-d]pyridazine-1,7-dione] | 69 | 91
3 | C[C@H](Nc1nn(C)c(=O)c2cc(=O)n([C@H]3C[C@@H](C#N)C3)cc12)c1cccc(C(F)F)c1F [Example 75, (1S,3s)-3-(4-(((R)-1-(3-(difluoromethyl)-2-fluorophenyl)ethyl)amino)-2-methyl-1,7-dioxo-1,7-dihydropyrido[3,4-d]pyridazin-6(2H)-yl)cyclobutane-1-carbonitrile] | 73 | 127
4 | C[C@@H](Nc1nn(C)c(=O)c2cc(=O)n(C3CC(C#N)C3)cc12)c1cccc(C(F)F)c1F (stereo partly drawn) [Example 76, (1r,3s)-3-(4-(((R)-1-(3-(difluoromethyl)-2-fluorophenyl)ethyl)amino)-2-methyl-1,7-dioxo-1,7-dihydropyrido[3,4-d]pyridazin-6(2H)-yl)cyclobutane-1-carbonitrile] | 37 | 92.8
5 | Cc1c([C@@H](C)Nc2nn(CCO)c(=O)c3cc(=O)n(C4CC4)cc23)cccc1C(F)(F)F [Example 77, (R)-6-cyclopropyl-2-(2-hydroxyethyl)-4-((1-(2-methyl-3-(trifluoromethyl)phenyl)ethyl)amino)-2,6-dihydropyrido[3,4-d]pyridazine-1,7-dione] | 61 | 305
6 | COC1(C)CN(CCn2nc(N[C@H](C)c3cccc(C(F)(F)F)c3C)c3cn(C4CC4)c(=O)cc3c2=O)C1 [Example 78, (R)-6-cyclopropyl-2-(2-(3-methoxy-3-methylazetidin-1-yl)ethyl)-4-((1-(2-methyl-3-(trifluoromethyl)phenyl)ethyl)amino)-2,6-dihydropyrido[3,4-d]pyridazine-1,7-dione] | 55 | 89
7 | Cc1c([C@@H](C)Nc2nn(CCN3CC(C)(F)C3)c(=O)c3cc(=O)n(C4CC4)cc23)cccc1C(F)(F)F [Example 79, (R)-6-cyclopropyl-2-(2-(3-fluoro-3-methylazetidin-1-yl)ethyl)-4-((1-(2-methyl-3-(trifluoromethyl)phenyl)ethyl)amino)-2,6-dihydropyrido[3,4-d]pyridazine-1,7-dione] | 124 | 300
8 | Cc1c([C@@H](C)Nc2nn(C)c(=O)c3c(N(C)C)c(=O)n(C4CC4)cc23)cccc1C(F)(F)F [Example 80, (R)-6-cyclopropyl-8-(dimethylamino)-2-methyl-4-((1-(2-methyl-3-(trifluoromethyl)phenyl)ethyl)amino)-2,6-dihydropyrido[3,4-d]pyridazine-1,7-dione] | 303 | 302
9 | Cc1c([C@@H](C)Nc2nn(C)c(=O)c3c(OC(C)C)c(=O)n(C4CC4)cc23)cccc1C(F)(F)F [Example 81, (R)-6-cyclopropyl-8-isopropoxy-2-methyl-4-((1-(2-methyl-3-(trifluoromethyl)phenyl)ethyl)amino)-2,6-dihydropyrido[3,4-d]pyridazine-1,7-dione] | 134 | 376
10 | Cc1c([C@@H](C)Nc2nn(C)c(=O)c3c(OCC4CC4)c(=O)n(C4CC4)cc23)cccc1C(F)(F)F [Example 82, (R)-6-cyclopropyl-8-(cyclopropylmethoxy)-2-methyl-4-((1-(2-methyl-3-(trifluoromethyl)phenyl)ethyl)amino)-2,6-dihydropyrido[3,4-d]pyridazine-1,7-dione] | 51 | 476
